According to the NIST ThermoML archive (doi:10.1016/j.jct.2015.08.013):

Assay: xn = mol fraction of the nth substance listed
Conditions: 100 kPa, Liquid; for mass density: Vibrating tube method; for viscosity: Capillary tube (Ostwald / Ubbelohde) method

CC1COC(=O)O1 (centres undefined) [4-methyl-1,3-dioxolan-2-one] + CN1CCCC1=O
Conditions | mass density [kg/m3] | viscosity [mPa·s]
293.15 K, x2 = 0 | 1204.81 | –
293.15 K, x2 = 0.0523 | 1194.07 | –
293.15 K, x2 = 0.1021 | 1184.1 | –
293.15 K, x2 = 0.1995 | 1165.18 | –
293.15 K, x2 = 0.2987 | 1146.67 | –
293.15 K, x2 = 0.4003 | 1128.44 | –
293.15 K, x2 = 0.5164 | 1108.38 | –
293.15 K, x2 = 0.6011 | 1094.3 | –
293.15 K, x2 = 0.6989 | 1078.57 | –
293.15 K, x2 = 0.7989 | 1062.97 | –
293.15 K, x2 = 0.9003 | 1047.58 | –
293.15 K, x2 = 0.9506 | 1040.04 | –
298.15 K, x2 = 0 | 1199.02 | 2.52
298.15 K, x2 = 0.0523 | 1188.38 | –
298.15 K, x2 = 0.1021 | 1178.51 | –
298.15 K, x2 = 0.114 | – | 2.391
298.15 K, x2 = 0.1995 | 1159.73 | –
298.15 K, x2 = 0.2013 | – | 2.294
298.15 K, x2 = 0.2987 | 1141.4 | –
298.15 K, x2 = 0.3347 | – | 2.158
298.15 K, x2 = 0.389 | – | 2.103
298.15 K, x2 = 0.4003 | 1123.3 | –
298.15 K, x2 = 0.5 | – | 2.003
298.15 K, x2 = 0.5164 | 1103.36 | –
298.15 K, x2 = 0.597 | – | 1.926
298.15 K, x2 = 0.6011 | 1089.39 | –
298.15 K, x2 = 0.6989 | 1073.78 | –
298.15 K, x2 = 0.709 | – | 1.845
298.15 K, x2 = 0.7891 | – | 1.796
298.15 K, x2 = 0.7989 | 1058.3 | –
298.15 K, x2 = 0.8985 | – | 1.732
298.15 K, x2 = 0.9003 | 1043 | –
298.15 K, x2 = 0.9506 | 1035.5 | –
303.15 K, x2 = 0 | 1194 | 2.27
303.15 K, x2 = 0.0523 | 1183.42 | –
303.15 K, x2 = 0.1021 | 1173.58 | –
303.15 K, x2 = 0.114 | – | 2.157
303.15 K, x2 = 0.1995 | 1154.87 | –
303.15 K, x2 = 0.2013 | – | 2.076
303.15 K, x2 = 0.2987 | 1136.58 | –
303.15 K, x2 = 0.3347 | – | 1.957
303.15 K, x2 = 0.389 | – | 1.908
303.15 K, x2 = 0.4003 | 1118.52 | –
303.15 K, x2 = 0.5 | – | 1.821
303.15 K, x2 = 0.5164 | 1098.63 | –
303.15 K, x2 = 0.597 | – | 1.754
303.15 K, x2 = 0.6011 | 1084.68 | –
303.15 K, x2 = 0.6989 | 1069.12 | –
303.15 K, x2 = 0.709 | – | 1.685
303.15 K, x2 = 0.7891 | – | 1.641
303.15 K, x2 = 0.7989 | 1053.68 | –
303.15 K, x2 = 0.8985 | – | 1.585
303.15 K, x2 = 0.9003 | 1038.41 | –
303.15 K, x2 = 0.9506 | 1030.92 | –
308.15 K, x2 = 0 | 1188.57 | 2.08
308.15 K, x2 = 0.0523 | 1178.1 | –
308.15 K, x2 = 0.1021 | 1168.35 | –
308.15 K, x2 = 0.114 | – | 1.988
308.15 K, x2 = 0.1995 | 1149.78 | –
308.15 K, x2 = 0.2013 | – | 1.916
308.15 K, x2 = 0.2987 | 1131.63 | –
308.15 K, x2 = 0.3347 | – | 1.81
308.15 K, x2 = 0.389 | – | 1.767
308.15 K, x2 = 0.4003 | 1113.71 | –
308.15 K, x2 = 0.5 | – | 1.688
308.15 K, x2 = 0.5164 | 1093.99 | –
308.15 K, x2 = 0.597 | – | 1.628
308.15 K, x2 = 0.6011 | 1080.16 | –
308.15 K, x2 = 0.6989 | 1064.71 | –
308.15 K, x2 = 0.709 | – | 1.568
308.15 K, x2 = 0.7891 | – | 1.527
308.15 K, x2 = 0.7989 | 1049.38 | –
308.15 K, x2 = 0.8985 | – | 1.475
308.15 K, x2 = 0.9003 | 1034.2 | –
308.15 K, x2 = 0.9506 | 1026.76 | –
313.15 K, x2 = 0 | 1183.11 | 1.91
313.15 K, x2 = 0.0523 | 1172.69 | –
313.15 K, x2 = 0.1021 | 1162.99 | –
313.15 K, x2 = 0.114 | – | 1.828
313.15 K, x2 = 0.1995 | 1144.5 | –
313.15 K, x2 = 0.2013 | – | 1.765
313.15 K, x2 = 0.2987 | 1126.42 | –
313.15 K, x2 = 0.3347 | – | 1.673
313.15 K, x2 = 0.389 | – | 1.636
313.15 K, x2 = 0.4003 | 1108.58 | –
313.15 K, x2 = 0.5 | – | 1.568
313.15 K, x2 = 0.5164 | 1088.95 | –
313.15 K, x2 = 0.597 | – | 1.516
313.15 K, x2 = 0.6011 | 1075.18 | –
313.15 K, x2 = 0.6989 | 1059.78 | –
313.15 K, x2 = 0.709 | – | 1.461
313.15 K, x2 = 0.7891 | – | 1.426
313.15 K, x2 = 0.7989 | 1044.52 | –
313.15 K, x2 = 0.8985 | – | 1.379
313.15 K, x2 = 0.9003 | 1029.43 | –
313.15 K, x2 = 0.9506 | 1022.03 | –
318.15 K, x2 = 0 | 1177.55 | 1.75
318.15 K, x2 = 0.0523 | 1167.21 | –
318.15 K, x2 = 0.1021 | 1157.58 | –
318.15 K, x2 = 0.114 | – | 1.682
318.15 K, x2 = 0.1995 | 1139.21 | –
318.15 K, x2 = 0.2013 | – | 1.627
318.15 K, x2 = 0.2987 | 1121.25 | –
318.15 K, x2 = 0.3347 | – | 1.545
318.15 K, x2 = 0.389 | – | 1.513
318.15 K, x2 = 0.4003 | 1103.52 | –
318.15 K, x2 = 0.5 | – | 1.453
318.15 K, x2 = 0.5164 | 1084 | –
318.15 K, x2 = 0.597 | – | 1.407
318.15 K, x2 = 0.6011 | 1070.31 | –
318.15 K, x2 = 0.6989 | 1054.99 | –
318.15 K, x2 = 0.709 | – | 1.359
318.15 K, x2 = 0.7891 | – | 1.328
318.15 K, x2 = 0.7989 | 1039.81 | –
318.15 K, x2 = 0.8985 | – | 1.286
318.15 K, x2 = 0.9003 | 1024.81 | –
318.15 K, x2 = 0.9506 | 1017.45 | –
323.15 K, x2 = 0 | 1171.96 | 1.62
323.15 K, x2 = 0.0523 | 1161.72 | –
323.15 K, x2 = 0.1021 | 1152.17 | –
323.15 K, x2 = 0.114 | – | 1.56
323.15 K, x2 = 0.1995 | 1133.96 | –
323.15 K, x2 = 0.2013 | – | 1.513
323.15 K, x2 = 0.2987 | 1116.14 | –
323.15 K, x2 = 0.3347 | – | 1.443
323.15 K, x2 = 0.389 | – | 1.414
323.15 K, x2 = 0.4003 | 1098.55 | –
323.15 K, x2 = 0.5 | – | 1.361
323.15 K, x2 = 0.5164 | 1079.17 | –
323.15 K, x2 = 0.597 | – | 1.32
323.15 K, x2 = 0.6011 | 1065.56 | –
323.15 K, x2 = 0.6989 | 1050.38 | –
323.15 K, x2 = 0.709 | – | 1.278
323.15 K, x2 = 0.7891 | – | 1.25
323.15 K, x2 = 0.7989 | 1035.3 | –
323.15 K, x2 = 0.8985 | – | 1.213
323.15 K, x2 = 0.9003 | 1020.41 | –
323.15 K, x2 = 0.9506 | 1013.09 | –
